{"source": "paper PMC5515969", "about": "“Effects of 31 FDA approved small-molecule kinase inhibitors on isolated rat liver mitochondria” (Archives of Toxicology, 2016); on RCC V at 5XCmax: key: 0 indicates that the drug had no effects (negative)", "key": {"[1]": {"conditions": "read-out: Cmax at µM; human therapeutic maximal blood concentration; ref product labeling; cited from earlier work"}, "[2]": {"system": "isolated rat liver mitochondria", "test": "Mitochondrial inner membrane potential (MMP), Rhodamine 123", "assay_type": "biochemical", "conditions": "difference in signal between KI and DMSO treated samples at the end of experiments", "excerpt": "Fig. 3 KI effects on mitochondrial inner membrane potential (MMP). […] In a, c, data are means and standard derivations from three separate experiments. *p < 0.05 as compared to DMSO-treated samples at the end of experiments. In b, data are means of two independent experiments"}, "[3]": {"system": "isolated rat liver mitochondria", "test": "Mitochondrial ROS production (CM-H2DCFDA)", "conditions": "DMSO treated samples set as 1"}, "[4]": {"molecular_target": "T1, RCC II (Rattus norvegicus, UniProt P21913+Q641Z9+Q6PCT8+Q920L2)", "T1 construct": "Submitochondrial particles were prepared by subjecting the intact mitochondria to three successive freeze–thaw cycles; from tissue; host or cells: rat liver mitochondria, used as submitochondrial particles", "T1 sequence (Q920L2 35-656)": "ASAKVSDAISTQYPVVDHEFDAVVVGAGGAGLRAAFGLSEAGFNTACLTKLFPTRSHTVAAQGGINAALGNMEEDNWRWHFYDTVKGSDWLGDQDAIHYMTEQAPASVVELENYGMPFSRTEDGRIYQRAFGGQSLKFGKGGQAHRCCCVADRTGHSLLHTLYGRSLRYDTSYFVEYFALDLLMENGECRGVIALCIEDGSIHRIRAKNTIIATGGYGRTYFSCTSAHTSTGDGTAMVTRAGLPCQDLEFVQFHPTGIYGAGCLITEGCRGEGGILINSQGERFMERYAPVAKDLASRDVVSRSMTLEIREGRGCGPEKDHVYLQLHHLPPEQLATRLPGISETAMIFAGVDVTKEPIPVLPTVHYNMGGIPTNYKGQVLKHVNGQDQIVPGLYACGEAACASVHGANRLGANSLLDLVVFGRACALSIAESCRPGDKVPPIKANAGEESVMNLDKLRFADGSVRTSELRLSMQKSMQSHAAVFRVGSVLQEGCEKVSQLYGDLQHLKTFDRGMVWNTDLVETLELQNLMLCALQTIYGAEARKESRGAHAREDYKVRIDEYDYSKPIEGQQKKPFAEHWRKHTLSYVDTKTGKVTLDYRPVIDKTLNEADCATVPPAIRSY", "T1 sequence (P21913 31-282)": "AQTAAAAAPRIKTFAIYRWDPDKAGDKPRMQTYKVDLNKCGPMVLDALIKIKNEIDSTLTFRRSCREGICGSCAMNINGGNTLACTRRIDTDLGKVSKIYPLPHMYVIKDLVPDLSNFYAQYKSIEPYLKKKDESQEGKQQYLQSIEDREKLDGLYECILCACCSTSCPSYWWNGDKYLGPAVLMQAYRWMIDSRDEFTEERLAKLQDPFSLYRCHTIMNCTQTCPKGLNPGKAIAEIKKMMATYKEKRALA", "T1 sequence (Q641Z9 1-169)": "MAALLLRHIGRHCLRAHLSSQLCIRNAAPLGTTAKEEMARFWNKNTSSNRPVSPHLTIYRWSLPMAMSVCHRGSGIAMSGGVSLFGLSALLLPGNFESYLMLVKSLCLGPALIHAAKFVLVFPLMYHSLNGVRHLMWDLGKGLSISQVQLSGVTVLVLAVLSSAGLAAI", "T1 sequence (Q6PCT8 57-159)": "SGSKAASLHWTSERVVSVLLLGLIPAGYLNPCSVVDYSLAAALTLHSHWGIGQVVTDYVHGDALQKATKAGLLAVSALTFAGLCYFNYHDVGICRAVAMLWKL", "test": "RCC II activity in submitochondrial particles", "assay_type": "biochemical", "set-up": "key: activity relative to DMSO-treated controls (control set as 1 = 100%)", "conditions": "DMSO treated samples set as 1", "summary_of_the_method": "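Activity relative to DMSO (set as 1) after 15-min exposure of submitochondrial particles (1 mg/ml) to compound. RCC I is defined as rotenone-sensitive activity and RCC II is followed at 600 nm over 6 min.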"}, "[5]": {"system": "isolated rat liver mitochondria", "conditions": "positive control alamethicin treated samples"}, "[6]": {"system": "isolated rat liver mitochondria", "test": "Mitochondrial oxygen consumption (glutamate/malate or succinate driven, state 4 and state 3); on State 3 respiration driven by succinate at 10XCmax: key: 0 indicates that the drug had no effects (negative); on State 3 respiration driven by succinate at 1XCmax: key: 0 indicates that the drug had no effects (negative)", "assay_type": "biochemical", "conditions": "DMSO treated samples set as 1", "summary_of_the_method": "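Oxygen uptake on glutamate/malate or on succinate defined state 4; ADP added 3 min later gave state 3. Mitochondria isolated from rat liver by differential centrifugation, adjusted to 1 mg/ml and pretreated 5 min with inhibitor (0.1% DMSO final). Values relative to DMSO control, set to 1.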"}, "[7]": {"system": "RCC III", "test": "RCC III activity in submitochondrial particles", "assay_type": "biochemical, rat", "set-up": "key to RCC III at 100XCmax: activity relative to DMSO-treated controls (control set as 1 = 100%)", "conditions": "100XCmax", "summary_of_the_method": "(§1)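 Rat submitochondrial particles (1 mg/ml) were treated with test compounds for 15 min. RCC IV, like RCC III, was monitored at 550 nm every 10 s for 2 min, and RCC I/V at 340 nm each minute for 6 min. DMSO samples defined unit activity.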"}, "[8]": {"system": "RCC V", "test": "RCC V activity in submitochondrial particles", "assay_type": "biochemical, rat", "conditions": "DMSO treated samples set as 1", "summary_of_the_method": "as §1"}, "[9]": {"system": "RCC I", "test": "RCC I activity in submitochondrial particles", "assay_type": "biochemical, rat", "set-up": "key to RCC I at 10XCmax / RCC I at 100XCmax / RCC I at 50XCmax / RCC I at 30XCmax / RCC I at 20XCmax: activity relative to DMSO-treated controls (control set as 1 = 100%)", "conditions": "10XCmax; DMSO treated samples set as 1", "summary_of_the_method": "as §1"}}}
{"compound": "CC(=O)Nc1cccc(-n2c(=O)n(C3CC3)c(=O)c3c(Nc4ccc(I)cc4F)n(C)c(=O)c(C)c32)c1", "note": "[Trametinib]", "values": [{"measurement": "Cmax", "setting": "[1]", "result": 0.04, "unit": "µM"}, {"measurement": "MMP measured by Rhodamine 123 at 1XCmax", "setting": "[2]; 1XCmax", "result": 0}, {"measurement": "MMP measured by Rhodamine 123 at 2.5XCmax", "setting": "[2]; 2.5XCmax", "result": 0}, {"measurement": "MMP measured by Rhodamine 123 at 5XCmax", "setting": "[2]; 5XCmax", "result": 0}, {"measurement": "MMP measured by Rhodamine 123 at 10XCmax", "setting": "[2]; 10XCmax", "result": 0}, {"measurement": "MMP measured by Rhodamine 123 at 20XCmax", "setting": "[2]; 20XCmax", "result": 0}, {"measurement": "MMP measured by Rhodamine 123 at 30XCmax", "setting": "[2]; 30XCmax", "result": 0}, {"measurement": "MMP measured by Rhodamine 123 at 50XCmax", "setting": "[2]; 50XCmax", "result": 0}, {"measurement": "MMP measured by Rhodamine 123 at 100XCmax", "setting": "[2]; 100XCmax", "result": 0}, {"measurement": "ROS measured by CM-H2DCFDA at 1XCmax", "setting": "[3]; 1XCmax", "result": 0}, {"measurement": "ROS measured by CM-H2DCFDA at 2.5XCmax", "setting": "[3]; 2.5XCmax", "result": 0}, {"measurement": "ROS measured by CM-H2DCFDA at 5XCmax", "setting": "[3]; 5XCmax", "result": 0}, {"measurement": "ROS measured by CM-H2DCFDA at 10XCmax", "setting": "[3]; 10XCmax", "result": 0}, {"measurement": "ROS measured by CM-H2DCFDA at 20XCmax", "setting": "[3]; 20XCmax", "result": 0}, {"measurement": "ROS measured by CM-H2DCFDA at 30XCmax", "setting": "[3]; 30XCmax", "result": 0}, {"measurement": "ROS measured by CM-H2DCFDA at 50XCmax", "setting": "[3]; 50XCmax", "result": 0}, {"measurement": "ROS measured by CM-H2DCFDA at 100XCmax", "setting": "[3]; 100XCmax", "result": 0}, {"measurement": "RCC II at 1.0XCmax", "setting": "[4]; 1.0XCmax", "result": 0}, {"measurement": "RCC II at 2.5XCmax", "setting": "[4]; 2.5XCmax", "result": 0}, {"measurement": "RCC II at 5XCmax", "setting": "[4]; 5XCmax", "result": 0}, {"measurement": "RCC II at 10XCmax", "setting": "[4]; 10XCmax", "result": 0}, {"measurement": "RCC II at 20XCmax", "setting": "[4]; 20XCmax", "result": 0}, {"measurement": "RCC II at 30XCmax", "setting": "[4]; 30XCmax", "result": 0}, {"measurement": "RCC II at 50XCmax", "setting": "[4]; 50XCmax", "result": 0}, {"measurement": "RCC II at 100XCmax", "setting": "[4]; 100XCmax", "result": 0}, {"measurement": "Cytochrome c release 1XCmax", "setting": "[5]; 1XCmax", "result": 0}, {"measurement": "Cytochrome c release 2.5XCmax", "setting": "[5]; 2.5XCmax", "result": 0}, {"measurement": "Cytochrome c release 5XCmax", "setting": "[5]; 5XCmax", "result": 0}, {"measurement": "Cytochrome c release 10XCmax", "setting": "[5]; 10XCmax", "result": 0}, {"measurement": "Cytochrome c release 20XCmax", "setting": "[5]; 20XCmax", "result": 0}, {"measurement": "Cytochrome c release 30XCmax", "setting": "[5]; 30XCmax", "result": 0}, {"measurement": "Cytochrome c release 50XCmax", "setting": "[5]; 50XCmax", "result": 0}, {"measurement": "Cytochrome c release 100XCmax", "setting": "[5]; 100XCmax", "result": 0}, {"measurement": "State 3 respiration driven by glutamate/malate at 1XCmax", "setting": "[6]; 1XCmax", "result": 0}, {"measurement": "State 3 respiration driven by succinate at 1XCmax", "setting": "[6]; 1XCmax", "result": 0}, {"measurement": "State 4 respiration driven by glutamate/malate at 1XCmax", "setting": "[6]; 1XCmax", "result": 0}, {"measurement": "State 4 respiration driven by succinate at 1XCmax", "setting": "[6]; 1XCmax", "result": 0}, {"measurement": "State 3 respiration driven by glutamate/malate at 2.5XCmax", "setting": "[6]; 2.5XCmax", "result": 0}, {"measurement": "State 3 respiration driven by succinate at 2.5XCmax", "setting": "[6]; 2.5XCmax", "result": 0}, {"measurement": "State 4 respiration driven by glutamate/malate at 2.5XCmax", "setting": "[6]; 2.5XCmax", "result": 0}, {"measurement": "State 4 respiration driven by succinate at 2.5XCmax", "setting": "[6]; 2.5XCmax", "result": 0}, {"measurement": "State 3 respiration driven by glutamate/malate at 5XCmax", "setting": "[6]; 5XCmax", "result": 0}, {"measurement": "State 3 respiration driven by succinate at 5XCmax", "setting": "[6]; 5XCmax", "result": 0}, {"measurement": "State 4 respiration driven by glutamate/malate at 5XCmax", "setting": "[6]; 5XCmax", "result": 0}, {"measurement": "State 4 respiration driven by succinate at 5XCmax", "setting": "[6]; 5XCmax", "result": 0}, {"measurement": "State 3 respiration driven by glutamate/malate at 10XCmax", "setting": "[6]; 10XCmax", "result": 0}, {"measurement": "State 3 respiration driven by succinate at 10XCmax", "setting": "[6]; 10XCmax", "result": 0}, {"measurement": "State 4 respiration driven by glutamate/malate at 10XCmax", "setting": "[6]; 10XCmax", "result": 0}, {"measurement": "State 4 respiration driven by succinate at 10XCmax", "setting": "[6]; 10XCmax", "result": 0}, {"measurement": "State 3 respiration driven by glutamate/malate at 20XCmax", "setting": "[6]; 20XCmax", "result": 0}, {"measurement": "State 3 respiration driven by succinate at 20XCmax", "setting": "[6]; 20XCmax", "result": 0}, {"measurement": "State 4 respiration driven by glutamate/malate at 20XCmax", "setting": "[6]; 20XCmax", "result": 0}, {"measurement": "State 4 respiration driven by succinate at 20XCmax", "setting": "[6]; 20XCmax", "result": 0}, {"measurement": "State 3 respiration driven by glutamate/malate at 30XCmax", "setting": "[6]; 30XCmax", "result": 0}, {"measurement": "State 3 respiration driven by succinate at 30XCmax", "setting": "[6]; 30XCmax", "result": 0}, {"measurement": "State 4 respiration driven by glutamate/malate at 30XCmax", "setting": "[6]; 30XCmax", "result": 0}, {"measurement": "State 4 respiration driven by succinate at 30XCmax", "setting": "[6]; 30XCmax", "result": 0}, {"measurement": "State 3 respiration driven by glutamate/malate at 50XCmax", "setting": "[6]; 50XCmax", "result": 0}, {"measurement": "State 3 respiration driven by succinate at 50XCmax", "setting": "[6]; 50XCmax", "result": 0}, {"measurement": "State 4 respiration driven by glutamate/malate at 50XCmax", "setting": "[6]; 50XCmax", "result": 0}, {"measurement": "State 4 respiration driven by succinate at 50XCmax", "setting": "[6]; 50XCmax", "result": 0}, {"measurement": "State 3 respiration driven by glutamate/malate at 100XCmax", "setting": "[6]; 100XCmax", "result": 0}, {"measurement": "State 3 respiration driven by succinate at 100XCmax", "setting": "[6]; 100XCmax", "result": 0}, {"measurement": "State 4 respiration driven by glutamate/malate at 100XCmax", "setting": "[6]; 100XCmax", "result": 0}, {"measurement": "State 4 respiration driven by succinate at 100XCmax", "setting": "[6]; 100XCmax", "result": 0}, {"measurement": "RCC III at 100XCmax", "setting": "[7]", "result": 0}, {"measurement": "RCC V at 5XCmax", "setting": "[8]; 5XCmax", "result": 0}, {"measurement": "RCC V at 50XCmax", "setting": "[8]; 50XCmax", "result": 0}, {"measurement": "RCC I at 10XCmax", "setting": "[9]", "result": 0}]}
